In patent publication US8247556B2, “Method for preparing 6-substituted-7-aza-indoles” (Amgen Inc., priority 2005, dated 2012):

Columns and labels:
[1] = molecular target: T1, CYP 2D6 (Homo sapiens, UniProt P10635); test: Human Liver Microsome CYP 2D6 Inhibition; format: in vitro ADME; conditions: human liver microsomes, bufuralol substrate; read-out: inhibited CYP2D6 microsomes, IC50
T1 construct: followed by 555.6 ml of 20 mg/mL HLM (BD Gentest); tissue BD Gentest; host or cells: human liver microsomes
T1 sequence (P10635 whole entry): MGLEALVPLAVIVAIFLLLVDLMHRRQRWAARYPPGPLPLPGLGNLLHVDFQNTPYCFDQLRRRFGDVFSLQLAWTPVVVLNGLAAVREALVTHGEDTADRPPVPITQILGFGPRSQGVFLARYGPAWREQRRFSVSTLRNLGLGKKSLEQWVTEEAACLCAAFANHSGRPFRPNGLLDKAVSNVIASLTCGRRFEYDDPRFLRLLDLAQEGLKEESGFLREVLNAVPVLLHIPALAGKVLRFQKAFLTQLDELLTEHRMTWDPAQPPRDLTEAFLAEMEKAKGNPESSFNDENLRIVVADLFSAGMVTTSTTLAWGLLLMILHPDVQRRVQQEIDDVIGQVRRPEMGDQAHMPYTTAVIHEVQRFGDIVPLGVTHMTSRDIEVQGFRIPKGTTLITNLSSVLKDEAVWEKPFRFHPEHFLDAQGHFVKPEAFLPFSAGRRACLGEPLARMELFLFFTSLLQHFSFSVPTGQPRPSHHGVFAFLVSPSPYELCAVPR
In short: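 Pooled human liver microsomes with bufuralol in potassium phosphate pH 7.4, preincubated with inhibitor at 37 °C; reaction started with NADPH, quenched after 5 min with 0.1% TFA in acetonitrile. 1′-OH-bufuralol quantified by LC-MS with deuterated internal standard; IC50 determined, quinidine 500 nM as control.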

[2] = molecular target: T2, CYP 3A4 (Homo sapiens, UniProt P08684); test: Human Liver Microsome CYP 3A4 Inhibition; format: in vitro ADME; conditions: human liver microsomes, midazolam substrate; read-out: inhibited CYP3A4 microsomes, IC50
T2 construct: followed by 222.2 ml of 20 mg/mL HLM (BD Gentest); tissue BD Gentest; host or cells: human liver microsomes
T2 sequence (P08684 whole entry): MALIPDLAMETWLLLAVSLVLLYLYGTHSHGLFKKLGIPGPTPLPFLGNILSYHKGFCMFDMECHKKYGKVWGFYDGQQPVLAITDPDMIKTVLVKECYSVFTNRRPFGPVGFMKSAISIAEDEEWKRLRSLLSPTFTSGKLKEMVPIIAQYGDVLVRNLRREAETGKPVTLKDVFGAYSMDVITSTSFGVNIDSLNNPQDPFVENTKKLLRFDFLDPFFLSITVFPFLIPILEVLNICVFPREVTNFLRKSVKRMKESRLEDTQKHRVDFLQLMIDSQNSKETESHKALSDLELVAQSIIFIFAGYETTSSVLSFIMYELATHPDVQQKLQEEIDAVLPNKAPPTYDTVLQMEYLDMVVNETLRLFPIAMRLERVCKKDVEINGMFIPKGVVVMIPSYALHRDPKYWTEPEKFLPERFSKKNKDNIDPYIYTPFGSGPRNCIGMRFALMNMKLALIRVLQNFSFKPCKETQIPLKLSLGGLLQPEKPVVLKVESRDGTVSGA
Procedure: Determining the IC-50 for Human Liver Microsome CYP 3A4 Inhibition
Postassium Phosphate Buffer pH 7.4 (39.667 mL) is chilled in an ice bath and added to a 50 ml plastic tube. A 2 mM midazolam solution is prepared. 111.1 ul of 2 mM midazolam is added to the buffer followed by 222.2 ml of 20 mg/mL HLM (BD Gentest). The incubation mixture was gently inverted and equilibrated at 37° C. for 5 min. A stock inhibitor solution is prepared, such as in DMSO. Incubation mixture (801 ul) is added into 96-well, 1.2 mL plastic tubes. Inhibitor is added at various concentrations (e.g. 30 uM to 120 nM). The tubes are sealed and mix by inverting 5 times gently. The incubation mixture containing inhibitor (270 uL) is added by aliquot into wells of a 1 mL, 96-well block (duplicate). The block is placed into a 37° C. water bath and equilibrated for 3 min. 10 mM NADPH (30 ml) is added to all samples. After 5 minutes, the reactions are stopped by adding 300 ml of Quench Solution [0.1% TFA in CH3CN]. 1′-OH-Midazolam-d313C (2 mg/mL 30 uL) is added, the block is gently vortexed then centrifuged at 3000 rpm for 10 minutes at 4° C. 50 μL of supernatant from all samples is added by aliquot into a shorter, 96-well block. The aliquoted supernatants are pooled with other assay(s) and HPLC Grade Water (50 ul) is added to all samples. After covering and shaking by vortex gently for 2 minutes, the solutions were analyzed by LC-MS (API 3000,5% MeOH w/0.1% AcOH to 95% MeOH w/0.1% AcOH). 37 nM ketoconazole is used as a control.

[3] = system: VEGF-stimulated HUVEC proliferation (Human Umbilical Vein Endothelial cells); test: HUVEC Proliferation Assay; format: cell-based; conditions: VEGF 50 ng/mL, 72 h, CyQuant fluorescent dye, read-out: inhibited VEGF-stimulated HUVEC proliferation at a level
In short: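 HUVEC (passage 2–3) were seeded in DMEM+10% FBS for 22 h, then pre-incubated 2–3 h with 5-point, 5-fold compound dilutions (0.25% DMSO). They were then stimulated with VEGF (50 ng/mL final) for 72 h at 37 °C. Proliferation was read by CyQuant fluorescence (485/530 nm) after freeze-thaw, and IC50 came from a 4-parameter fit.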

SMILES | IC50 [1] [µM] | IC50 [2] [µM] | IC50 [3] [µM]
CC(C)(C)c1cc(NC(=O)c2cccnc2NCc2ccnc3[nH]ccc23)no1 [Example 49, N-(5-tert-butylisoxazol-3-yl)-2-[(1H-pyrrolo[2,3-b]pyridin-4-ylmethyl)amino]nicotinamide] | > 20 | > 20 | < 0.5
CC1(C)CCNc2cc(NC(=O)c3cccnc3NCc3ccnc4[nH]ccc34)ccc21 [Example 9, N-(4,4-Dimethyl-1,2,3,4-tetrahydroquinolin-7-yl)-2-[(1H-pyrrolo[2,3-b]pyridin-4-ylmethyl)amino]nicotinamide] | > 20 | > 20 | < 0.5
O=C(Nc1ccc(C(F)(F)F)cc1)c1cccnc1NCc1ccnc2[nH]ccc12 [Example 66, 2-[(1H-Pyrrolo[2,3-b]pyridin-4-ylmethyl)-amino]-N-(4-trifluoromethyl-phenyl)-nicotinamide] | > 20 | > 20 | < 0.5
CC(C)(C)c1ccc(NC(=O)c2cccnc2NCc2ccnc3c2CCN3)cc1 [Example 28, N-(4-tert-Butylphenyl)-2-[(2,3-dihydro-1H-pyrrolo[2,3-b]pyridin-4-ylmethyl)amino]nicotinamide] | > 20 | > 20 | < 0.5
O=C(Nc1ccc2c(c1)CNCC21CC1)c1cccnc1NCc1ccnc2[nH]ccc12 [Example 10, N-(4-Spiro-1′-cyclopropane-1,2,3,4-tetrahydroisoquinolin-7-yl)-2-[(1H-pyrrolo[2,3-b]pyridin-4-ylmethyl)amino]nicotinamide] | > 20 | > 20 | < 0.5
O=C(Nc1ccc(C(F)(F)C(F)(F)F)cc1)c1cc(F)cnc1NCc1ccnc2[nH]ccc12 [Example 76, 5-fluoro-N-(4-(pentafluoroethyl)phenyl)-2-((1H-pyrrolo[2,3-b]pyridin-4-ylmethyl)amino)-3-pyridinecarboxamide] | > 20 | > 20 | < 0.5
Cc1cc(NC(=O)c2cc(F)cnc2NCc2ccnc3[nH]ccc23)ccc1C(C)C [Example 83, 5-fluoro-N-(3-methyl-4-(1-methylethyl)phenyl)-2-((1H-pyrrolo[2,3-b]pyridin-4-ylmethyl)amino)-3-pyridinecarboxamide] | > 20 | > 20 | < 0.5
CC1(C)CNc2cc(NC(=O)c3cccnc3NCc3ccnc4[nH]ccc34)ccc21 [Example 16, N-(3,3-Dimethyl-2,3-dihydro-1H-indol-6-yl)-2-[(1H-pyrrolo[2,3-b]pyridin-4-ylmethyl)amino]nicotinamide] | > 20 | > 20 | < 0.5
CC1(C)CNCc2cc(NC(=O)c3cccnc3NCc3ccnc4[nH]ccc34)ccc21 [Example 1, N-(4,4-Dimethyl-1,2,3,4-tetrahydroisoquinolin-7-yl)-2-[(1H-pyrrolo[2,3-b]pyridin-4-ylmethyl)amino]nicotinamide] | 10 | 9.8 | < 0.5
CN(C)CC(=O)Nc1cc(NC(=O)c2cccnc2NCc2ccnc3[nH]ccc23)ccc1C(C)(C)C [Example 59, N-[4-tert-Butyl-3-(2-dimethylamino-acetylamino)-phenyl]-2-[(1H-pyrrolo[2,3-b]pyridin-4-ylmethyl)-amino]-nicotinamide] | > 20 | > 20 | < 0.5
Cc1ccc(NC(=O)c2cc(F)cnc2NCc2ccnc3[nH]ccc23)cc1C(F)(F)F [Example 112, 5-fluoro-N-(4-methyl-3-(trifluoromethyl)phenyl)-2-((1H-pyrrolo[2,3-b]pyridin-4-ylmethyl)amino)-3-pyridinecarboxamide] | > 20 | > 20 | < 0.5
O=C(Nc1ccc(C(F)(F)F)cc1)c1cc(F)cnc1NCc1ccnc2[nH]ncc12 [Example 118, 5-Fluoro-2-((1H-pyrazolo[3,4-b]pyridin-4-ylmethyl)amino)-N-(4-(trifluoromethyl)phenyl)-3-pyridinecarboxamide] | > 20 | > 20 | < 0.5
CC1(C)CNc2cc(NC(=O)c3cccnc3NCc3ccnc4c3CCN4)ccc21 [Example 32, 2-[(2,3-Dihydro-1H-pyrrolo[2,3-b]pyridin-4-ylmethyl)amino]-N-(3,3-dimethyl-2,3-dihydro-1H-indol-6-yl)nicotinamide] | > 20 | > 20 | < 0.5
O=C(Nc1ccc2ccccc2c1)c1cccnc1NCc1ccnc2[nH]ccc12 [Example 50, N-Naphthalen-2-yl-2-[(1H-pyrrolo[2,3-b]pyridin-4-ylmethyl)-amino]-nicotinamide] | > 20 | > 20 | < 0.5
CC1(C)CN(C(=O)[C@@H]2CCCO2)c2cc(NC(=O)c3cccnc3NCc3ccnc4[nH]ccc34)ccc21 [Example 34, N-{3,3-dimethyl-1-[(2S)-tetrahydrofuran-2-ylcarbonyl]-2,3-dihydro-1H-indol-6-yl}-2-[(1H-pyrrolo[2,3-b]pyridin-4-ylmethyl)amino]nicotinamide] | > 20 | > 20 | < 0.5
Cc1cc(NC(=O)c2cc(F)cnc2NCc2ccnc3[nH]ncc23)ccc1C(C)C [Example 121, 5-Fluoro-N-(3-methyl-4-(1-methylethyl)phenyl)-2-((1H-pyrazolo[3,4-b]pyridin-4-ylmethyl)amino)-3-pyridinecarboxamide] | > 20 | > 20 | < 0.5
CC(C)c1ccc(NC(=O)c2cc(F)cnc2NCc2ccnc3[nH]ncc23)cc1 [Example 123, 5-Fluoro-N-(4-(1-methylethyl)phenyl)-2-((1H-pyrazolo[3,4-b]pyridin-4-ylmethyl)amino)-3-pyridinecarboxamide] | > 20 | > 20 | < 0.5
O=C(Nc1ccc(OC(F)(F)F)cc1)c1cc(F)cnc1NCc1ccnc2[nH]ccc12 [Example 96, 5-fluoro-2-((1H-pyrrolo[2,3-b]pyridin-4-ylmethyl)amino)-N-(4-((trifluoromethyl)oxy)phenyl)-3-pyridinecarboxamide] | > 20 | > 20 | < 0.5
CC1(C)CCCNc2cc(NC(=O)c3cccnc3NCc3ccnc4[nH]ccc34)ccc21 [Example 64, N-(5,5-Dimethyl-2,3,4,5-tetrahydro-1H-benzo[b]azepin-8-yl)-2-[(1H-pyrrolo[2,3-b]pyridin-4-ylmethyl)-amino]-nicotinamide] | > 20 | > 20 | < 0.5
O=C(Nc1ccc(OC(F)(F)F)cc1)c1cc(F)cnc1NCc1ccnc2[nH]ncc12 [Example 126, 5-Fluoro-2-((1H-pyrazolo[3,4-b]pyridin-4-ylmethyl)amino)-N-(4-((trifluoromethyl)oxy)phenyl)-3-pyridinecarboxamide] | > 20 | > 20 | < 0.5
